From patent US6555709B1, “Aromatic amides, their preparation process and their use as pesticides” (Hoechst Schering AgrEvo S.A., priority 1997, dated 2003)

Tests used:
Type in all cases: in vivo
Phaedon Cochleariae = assay: Study on Phaedon cochleariae, treated Chinese cabbage foliar disks; conditions: dose of 300 ppm; adults on dipped Chinese cabbage disks; checked after seven days; 25° C.
Description: A) Study on Phaedon Cochleariae The product was dissolved at the desired concentration in an acetone-water mixture (50-50). Foliar disks of Chinese cabbage (Brassica pekinensis) were immersed for five seconds in the solution, then left to dry for one hour. Ten adults (a mixture of males and females) were added into a Petri dish containing a foliar disk. These were kept at a temperature of 25° C., with a photoperiod of twelve hours. After seven days, the mortality of the insects was checked and the foliar surface consumed is evaluated.

Spodoptera Littoralis = assay: Study on Spodoptera littoralis, treated haricot leaves; conditions: starting from a dose of 300 ppm; larvae on dipped haricot leaves; checked after seven days; 25° C.
Description: B) Study on Spodoptera Littoralis The product was dissolved at the desired concentration in an acetone-water mixture (50-50). Haricot leaves (Phaseolus vulgaris, var. […]) were immersed for five seconds in the solution, then left to dry in a Petri dish for one hour. Ten larvae of Spodoptera littoralis were then added to each dish. These are were at a temperature of 25° C., with a photoperiod of twelve hours. After seven days, the mortality of the larvae was checked and the foliar surface consumed is evaluated.

Heliothis Virescens = assay: Study on Heliothis virescens, treated artificial medium; conditions: starting from a dose of 300 ppm; neonate larva on treated artificial medium; checked after seven days; 25° C.
Description: C) Study on Heliothis Virescens The product was dissolved at the desired concentration in an acetone-water mixture (50-50). 50 μl of solution is deposited on the surface of small well containing approximately 2 grams of plant based artificial medium. One neonate larva of Heliothis virescens was then introduced into each well, which was sealed with a sheet of cellophane. The tests were kept at a temperature of 25° C., with a photoperiod of twelve hours., The mortality of the larvae was checked after seven days.

[1] = system: Diabrotica undecimpunctata; assay: Study of the activity on Diabrotica, treated filter paper; conditions: starting from a dose of 300 ppm; final stage larvae on treated filter paper; checked 24 hours after treatment
Description: D) Study of the Activity on Diabrotica The test insects were final stage larvae of Diabrotica undecimpunctata. A 9 cm disc of filter paper, placed at the bottom of Petri dish, was treated using 1 cm^3 of an acetone solution. After drying 15 larvae per dose were deposited and the mortality check was carried out 24 hours after treatment.

SMILES | activity (mortality of the insects and foliar surface consumed) (Phaedon Cochleariae) | activity (mortality of the larvae and foliar surface consumed) (Spodoptera Littoralis) | activity (mortality of the larvae) (Heliothis Virescens) | activity (mortality) [1]
Cc1ccccc1NC(=O)c1ccc(CC2=Cc3ccc(Cl)c(Cl)c3CC2)cc1 [Product A] | very useful activity | very good activity | very good activity | very good activity
Cc1ccccc1NC(=O)c1ccc(Cc2ccc3cc(Cl)ccc3c2)cc1 [Product B] |  | very good activity | very good activity | 
Cc1ccccc1NC(=O)c1ccc(Cc2ccc3c(Br)cccc3c2)cc1 [Product C] |  | very good activity | very good activity | 
Cc1ccccc1NC(=O)c1ccc(Cc2ccc3cc(Br)ccc3c2)cc1 [Product D] |  | very good activity | very good activity | 
Cc1ccccc1NC(=O)c1ccc(CC2=Cc3ccc(Br)cc3CC2)cc1 [Product E] |  | very good activity | very good activity | 
Cc1ccccc1NC(=O)c1ccc(CC2CCc3cc(I)ccc3C2)cc1 (stereo not shown) [Product F] |  | very good activity | very good activity | 
Cc1ccccc1NC(=O)c1ccc(CC2=Cc3ccc(I)cc3CC2)cc1 [Product G] |  | very good activity | very good activity | 
Cc1ccccc1NC(=O)c1ccc(CC2=Cc3cc(Br)c(Br)cc3CC2)cc1 [Product H] |  | very good activity | very good activity | 
Cc1ccccc1NC(=O)c1ccc(Cc2ccc3c(c2)CC(Br)C(Br)C3)cc1 (stereo not shown) [Product I] |  | very good activity | very good activity | 
Cc1ccccc1NC(=O)c1ccc(CC2CCc3c(ccc(Cl)c3Cl)C2F)cc1 (stereo not shown) [Product J] |  | very good activity | very good activity | 
O=C(Nc1ccccc1)c1ccc(Cc2ccc3cc(Cl)c(Cl)cc3c2)cc1 [Product K] |  | very good activity | very good activity | 
CC(C)C(C)NC(=O)c1ccc(Cc2ccc3cc(Cl)ccc3c2)cc1 (stereo not shown) [Product L] |  |  | very good activity | very good activity
C=C(NC(C)C(C)C)c1ccc(Cc2ccc3cc(Cl)c(Cl)cc3c2)cc1 (stereo not shown) [Product M] |  |  | very good activity | very good activity
